Source: patent US12486267B2, “Imidazo[1,2-A]pyridine and [1,2,4]triazolo[1,5-A]pyridine derivatives as TLR9 inhibitors for the treatment of fibrosis” (BRISTOL-MYERS SQUIBB COMPANY, priority 2020, dated 2025)

What was measured:
Format in all cases: cell-based
human TLR9 = target: T1, human TLR9 (Homo sapiens, UniProt Q9NR96); assay: TLR9 inhibition reporter assay (HEK-Blue cells, SEAP reporter); details: HEK-Blue cells overexpressing human TLR9; stimulated with ODN2006 5 nM; 22 hour incubation; SEAP readout
T1 sequence (Q9NR96 26-1032): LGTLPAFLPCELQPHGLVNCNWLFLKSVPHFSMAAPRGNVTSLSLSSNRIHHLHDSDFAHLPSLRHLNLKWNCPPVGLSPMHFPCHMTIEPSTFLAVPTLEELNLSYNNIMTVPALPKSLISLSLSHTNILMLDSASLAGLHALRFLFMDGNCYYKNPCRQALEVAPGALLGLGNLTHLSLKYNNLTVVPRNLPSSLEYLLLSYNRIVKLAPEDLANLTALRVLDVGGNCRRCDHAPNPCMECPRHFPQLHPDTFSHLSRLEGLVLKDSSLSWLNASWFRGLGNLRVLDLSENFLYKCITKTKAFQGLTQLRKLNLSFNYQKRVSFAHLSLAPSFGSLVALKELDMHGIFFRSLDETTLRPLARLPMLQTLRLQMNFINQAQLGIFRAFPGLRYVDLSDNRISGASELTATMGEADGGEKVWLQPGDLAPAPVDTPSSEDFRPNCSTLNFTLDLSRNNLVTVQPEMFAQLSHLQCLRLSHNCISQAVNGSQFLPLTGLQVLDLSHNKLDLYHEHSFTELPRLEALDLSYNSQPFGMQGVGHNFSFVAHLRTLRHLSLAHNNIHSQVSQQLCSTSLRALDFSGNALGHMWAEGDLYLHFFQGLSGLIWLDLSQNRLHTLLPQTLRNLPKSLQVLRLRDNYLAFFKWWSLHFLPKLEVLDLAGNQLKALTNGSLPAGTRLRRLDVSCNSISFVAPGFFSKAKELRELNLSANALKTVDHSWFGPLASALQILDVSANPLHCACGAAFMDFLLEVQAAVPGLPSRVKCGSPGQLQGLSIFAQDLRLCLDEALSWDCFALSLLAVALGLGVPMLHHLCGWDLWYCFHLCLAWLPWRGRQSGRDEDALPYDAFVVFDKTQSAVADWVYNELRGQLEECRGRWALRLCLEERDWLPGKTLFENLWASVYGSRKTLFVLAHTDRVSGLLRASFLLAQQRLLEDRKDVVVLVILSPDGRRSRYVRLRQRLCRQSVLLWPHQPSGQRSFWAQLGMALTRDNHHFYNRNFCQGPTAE
In short: (§1)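 HEK-Blue cells with an NF-κB/AP-1-driven SEAP reporter were pre-treated 30 min at room temperature with compound (0.05 nM–50 μM), then stimulated with gardiquimod 7.5 μM (TLR7), R848 15.9 μM (TLR8) or ODN2006 5 nM (TLR9). After 22 h at 37 °C, SEAP was read; % inhibition was referenced to agonist+DMSO and known-inhibitor wells.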

human TLR7 = target: T2, human TLR7 (Homo sapiens, UniProt Q9NYK1); assay: TLR7 inhibition reporter assay (HEK-Blue cells, SEAP reporter); details: HEK-Blue cells overexpressing human TLR7; stimulated with gardiquimod 7.5 μM; 22 hour incubation; SEAP readout
T2 sequence (Q9NYK1 27-1049): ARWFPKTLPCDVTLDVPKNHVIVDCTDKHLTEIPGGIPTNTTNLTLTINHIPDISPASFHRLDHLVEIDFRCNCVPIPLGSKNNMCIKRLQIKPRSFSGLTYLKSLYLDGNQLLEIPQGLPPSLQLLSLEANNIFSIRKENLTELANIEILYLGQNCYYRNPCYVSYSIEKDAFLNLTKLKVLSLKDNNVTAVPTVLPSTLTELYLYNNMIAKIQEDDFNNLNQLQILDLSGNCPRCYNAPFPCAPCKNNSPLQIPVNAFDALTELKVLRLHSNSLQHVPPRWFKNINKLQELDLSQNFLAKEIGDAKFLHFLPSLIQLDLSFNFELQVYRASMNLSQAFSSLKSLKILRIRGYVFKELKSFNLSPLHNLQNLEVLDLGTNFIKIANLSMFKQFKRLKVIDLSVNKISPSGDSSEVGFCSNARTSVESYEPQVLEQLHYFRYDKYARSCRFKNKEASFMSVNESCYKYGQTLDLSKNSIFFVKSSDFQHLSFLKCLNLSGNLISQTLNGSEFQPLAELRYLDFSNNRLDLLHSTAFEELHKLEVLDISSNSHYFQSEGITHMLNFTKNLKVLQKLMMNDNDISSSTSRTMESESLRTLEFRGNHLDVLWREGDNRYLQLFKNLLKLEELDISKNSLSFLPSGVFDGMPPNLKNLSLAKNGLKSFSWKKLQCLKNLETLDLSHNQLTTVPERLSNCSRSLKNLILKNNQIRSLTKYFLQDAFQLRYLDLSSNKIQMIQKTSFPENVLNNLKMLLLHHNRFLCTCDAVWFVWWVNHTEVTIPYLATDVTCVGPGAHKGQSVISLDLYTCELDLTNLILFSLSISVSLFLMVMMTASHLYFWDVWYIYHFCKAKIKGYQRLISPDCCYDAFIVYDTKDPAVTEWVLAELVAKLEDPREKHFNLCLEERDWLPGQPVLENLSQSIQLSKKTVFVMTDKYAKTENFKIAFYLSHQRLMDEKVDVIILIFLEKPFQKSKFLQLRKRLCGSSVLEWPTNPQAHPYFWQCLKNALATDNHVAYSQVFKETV
In short: as §1

human TLR8 = target: T3, human TLR8 (Homo sapiens, UniProt Q9NR97); assay: TLR8 inhibition reporter assay (HEK-Blue cells, SEAP reporter); details: HEK-Blue cells overexpressing human TLR8; stimulated with R848 15.9 μM; 22 hour incubation; SEAP readout
T3 sequence (Q9NR97 27-1041): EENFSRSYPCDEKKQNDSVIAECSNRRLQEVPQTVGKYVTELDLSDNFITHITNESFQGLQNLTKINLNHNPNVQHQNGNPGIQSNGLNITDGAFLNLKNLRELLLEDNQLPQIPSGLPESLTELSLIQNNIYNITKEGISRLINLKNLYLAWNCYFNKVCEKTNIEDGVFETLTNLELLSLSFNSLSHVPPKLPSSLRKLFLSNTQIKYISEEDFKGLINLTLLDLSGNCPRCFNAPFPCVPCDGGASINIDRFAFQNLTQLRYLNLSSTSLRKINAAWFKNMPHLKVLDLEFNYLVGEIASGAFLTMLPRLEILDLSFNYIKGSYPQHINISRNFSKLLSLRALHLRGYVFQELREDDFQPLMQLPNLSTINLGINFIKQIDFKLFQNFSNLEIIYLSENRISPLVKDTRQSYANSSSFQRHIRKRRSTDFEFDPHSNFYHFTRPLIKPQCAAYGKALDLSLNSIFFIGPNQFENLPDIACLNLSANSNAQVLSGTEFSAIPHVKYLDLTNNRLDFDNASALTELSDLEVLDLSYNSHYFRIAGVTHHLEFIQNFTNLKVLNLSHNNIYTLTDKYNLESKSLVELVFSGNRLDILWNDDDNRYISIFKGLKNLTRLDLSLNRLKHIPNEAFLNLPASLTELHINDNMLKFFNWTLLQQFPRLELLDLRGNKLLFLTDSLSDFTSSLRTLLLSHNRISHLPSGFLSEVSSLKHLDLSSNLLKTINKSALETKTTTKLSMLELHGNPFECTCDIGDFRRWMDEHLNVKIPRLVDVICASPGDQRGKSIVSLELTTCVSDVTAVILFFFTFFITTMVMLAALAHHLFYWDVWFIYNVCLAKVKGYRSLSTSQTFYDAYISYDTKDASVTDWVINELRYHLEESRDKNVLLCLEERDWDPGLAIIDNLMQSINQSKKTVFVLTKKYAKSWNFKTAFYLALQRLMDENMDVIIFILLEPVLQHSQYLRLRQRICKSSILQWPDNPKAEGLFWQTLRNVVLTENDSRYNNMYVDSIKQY
In short: as §1

Row | SMILES | IC50 (human TLR9) [nM] | IC50 (human TLR7) [nM] | IC50 (human TLR8) [nM]
1 | CC(C)N1CCCC(N2CCC(c3cc(F)c4nc(-c5ccc(S(C)(=O)=O)cc5)cn4c3)CC2)CC1 (single isomer, unassigned) [Example 72, 8-fluoro-6-(1-(1-isopropylazepan-4-yl)piperidin-4-yl)-2-(4-(methylsulfonyl)phenyl)imidazo[1,2-a]pyridine] | 2.6 | 3000 | > 50000
2 | CS(=O)(=O)c1ccc(-c2cn3cc(C4CCN(C5CCCN(CC6CC6)CC5)CC4)cc(F)c3n2)cc1 (single isomer, unassigned) [Example 127, 6-(1-(1-(cyclopropylmethyl)azepan-4-yl)piperidin-4-yl)-8-fluoro-2-(4-(methylsulfonyl)phenyl)imidazo[1,2-a]pyridine] | 9.7 | 1600 | 36000
3 | CC(C)N1CCC(N2CCC(c3cc(F)c4nc(-c5ccc(S(C)(=O)=O)cc5)cn4c3)CC2)CC1 [Example 67, 8-fluoro-6-(1′-isopropyl-[1,4′-bipiperidin]-4-yl)-2-(4-(methylsulfonyl)phenyl) imidazo[1,2-a]pyridine] | 43 | 19200 | > 50000
4 | COc1ccc(-c2cn3c(n2)CC[C@@H](C2CCN(C4CC5CCC(C4)N5CC(C)C)CC2)C3)cc1OC (single isomer, unassigned) [Example 78] | 108 | 8600 | > 25000
5 | COc1ccc(-c2cn3c(n2)CC[C@@H](C2CCN(C4CC5CCC(C4)N5CC(C)C)CC2)C3)cc1OC (single isomer, unassigned) [Example 77] | 64 | 3600 | > 25000
6 | COc1ccc(-c2cn3c(n2)CC[C@@H](C2CCN(C4CC5CCC(C4)N5C(C)C)CC2)C3)cc1OC (single isomer, unassigned) [Example 136] | 78 | 15200 | > 25000
7 | CS(=O)(=O)c1ccc(-c2cn3ccc(C4CCN(C5CCN(C6CCOCC6)CC5)CC4)c(F)c3n2)cc1 [Example 133, 8-fluoro-2-(4-(methylsulfonyl)phenyl)-7-(1′-(tetrahydro-2H-pyran-4-yl)-[1,4′-bipiperidin]-4-yl)imidazo[1,2-a]pyridine] | 6 | 1900 | > 50000
8 | COc1ccc(-c2cn3c(n2)CCC(C2CCN(C4CCN(CC5CC5)CC4)CC2)C3)cc1OC (single isomer, unassigned) [Example 57, 6-(1′-(cyclopropylmethyl)-[1,4′-bipiperidin]-4-yl)-2-(3,4-dimethoxyphenyl)-5,6,7,8-tetrahydroimidazo[1,2-a]pyridine] | 36 | 4200 | > 50000
9 | COc1ccc(-c2cn3cc(C4CCN(C5CCN(C6CC6)CC5)CC4)cc(C)c3n2)cc1F [Example 4, 6-(1′-cyclopropyl-[1,4′-bipiperidin]-4-yl)-2-(3-fluoro-4-methoxyphenyl)-8-methylimidazo[1,2-a]pyridine] | 146 | 5500 | > 50000
10 | COc1ccc(-c2cn3c(n2)CCC(C2CCN(C4CCN(CC(C)C)CC4)CC2)C3)cc1OC (single isomer, unassigned) [Example 32, 2-(3,4-dimethoxyphenyl)-6-(1′-isobutyl-[1,4′-bipiperidin]-4-yl)-5,6,7,8-tetrahydroimidazo[1,2-a]pyridine] | 38 | 2800 | > 50000
11 | COc1ccc(-c2cn3cc(-c4ccc(N5CCN(C(C)C)CC5)cc4)cc(C)c3n2)cc1OC [Example 96, 2-(3,4-dimethoxyphenyl)-6-(4-(4-isopropylpiperazin-1-yl)phenyl)-8-methylimidazo[1,2-a]pyridine] | 232 | 2100 | 15000
12 | COc1ccc(-c2cn3cc(C4CCN(C5CC6(C5)CN(C5CC5)C6)CC4)cc(C)c3n2)cc1OC [Example 17, 6-(1-(2-cyclopropyl-2-azaspiro[3.3]heptan-6-yl)piperidin-4-yl)-2-(3,4-dimethoxyphenyl)-8-methylimidazo[1,2-a]pyridine] | 22 | 2300 | > 50000
13 | COc1ccc(-c2cn3c(n2)CCC(C2CCN(C4CCN(C(C)C)CC4)CC2)C3)cc1OC (racemic) [Example 34, 2-(3,4-dimethoxyphenyl)-6-(1′-isopropyl-[1,4′-bipiperidin]-4-yl)-5,6,7,8-tetrahydroimidazo[1,2-a]pyridine] | 37 | 12000 | > 50000
14 | CS(=O)(=O)c1ccc(-c2cn3cc(C4CCN(C5CC6CCC(C5)N6CC5CC5)CC4)cc(F)c3n2)cc1 (single isomer, unassigned) [Example 116, 6-(1-(8-(cyclopropylmethyl)-8-azabicyclo[3.2.1]octan-3-yl)piperidin-4-yl)-8-fluoro-2-(4-(methylsulfonyl)phenyl)imidazo[1,2-a]pyridine] | 3.9 | 700 | 14000
